According to patent publication US5143938A, “Propanamines, their pharmacological properties and their application for therapeutic in particular antidiarrheal, purposes” (Jouveinal S.A., priority 1990, dated 1992):

Tests used:
[1] = Activity with respect to gastrointestinal transit in rats (semi-solid charcoal meal); assay type: in vivo; details: for effect on intestinal transit, in words / Activity with respect to intestinal transit, percentage change relative to the controls: 30 mg/kg oral; for Activity with respect to intestinal transit, percentage change relative to the controls: one hour before meal, positive = accelerated, negative = slowed down
Procedure: The test is carried out according to the technique described by Green A. F., J. Pharmacol., 1959, 14, 26-34. It consists in determining in rats the distance travelled in the animal's intestine by a semi-solid meal after a specified time.
The test products are administered orally one hour before gavage of the animal with a semi-solid meal containing vegetable charcoal as a tracer. 15 minutes after the administration, the animal is sacrificed and the distance travelled in the intestine by the meal is expressed in relation to the total length.
This ratio, for the treated animals, is compared with that observed in control animals receiving only the meal.
In this test, the products of the invention were administered on the basis of 30 mg/kg and the results expressed as a percentage change relative to the controls, the ratio being positive when transit is accelerated and negative when it is slowed down; […]

[2] = Antidiarrheal activity in rats: inhibition of castor oil-induced diarrhea; assay type: in vivo
Procedure: This test is performed by studying the activity of the test compounds with respect to the diarrheaphenomenon caused in animals by the administration of castor oil.
The method consists in administering the test product in solution orally, one hour before the administration, also oral, of 1.0 ml of castor oil per animal.
The animals are then observed, and the number of rats which emit liquid stools is determined on an all-or-nothing basis every hour during the seven hours following administration of the diarrheal agent.

[3] = in vivo; details: mouse, po
[4] = mouse, in vivo
[5] = Rattus norvegicus, po, 3 h; read-out: ED 50 at 3 h., antidiarrheal activity

Row | SMILES | Activity with respect to intestinal transit, percentage change relative to the controls [1] | ED50 [2, 5] [mg/kg] | further results
1 | CCC(CCC1(c2cc(OC)cc(OC)c2)OCCO1)(NC)c1ccccc1 (stereo not drawn) [Example 3.c, 2-(3-N-methylamino-3-phenyl-pentan-1-yl)-2-(3,5-dimethoxyphenyl)-1,3-dioxolane] | -3% | 16 | effect on intestinal transit, in words [1]: zero
2 | CCC(CCC1(c2cc(OC)c(OC)c(OC)c2)OCCO1)(NC)c1ccc(C(F)(F)F)cc1 (stereo not drawn) [Example 3.f, 2-[3-N-Methylamino-3-(4-trifluoromethylphenyl)-pentan-1-yl]-2-(3,4,5-trimethoxyphenyl)-1,3-dioxolane] | -17% | 6 | –
3 | CCC(CCC(=O)c1cc(OC)c(OC)c(OC)c1)(c1ccc(Cl)cc1)N(C)C (stereo not drawn) [Example 9.a, 4-(4-chlorophenyl)-4-N,N-dimethylamino-1-(3,4,5-trimethoxyphenyl)-hexan-1-one] | -15% | 6 | –
4 | CCC(CCC(=O)c1cc(OC)c(OC)c(OC)c1)(c1ccc(C)cc1)N(C)C (stereo not drawn) [Example 9.b.2, 4-N,N-dimethylamino-4-(4-methylphenyl)-1-(3,4,5-trimethoxyphenyl)-hexan-1-one] | -14% | 2 | –
5 | CCC(CCC(=O)c1cc(OC)c(OC)c(OC)c1)(c1ccc(C(F)(F)F)cc1)N(C)C (stereo not drawn) [Example 9.c, 4-N,N-dimethylamino-4-(4-trifluoromethvlphenvl)-1-(3,4,5-trimethoxyphenyl)-hexan-1-one] | +2% | 15 | effect on intestinal transit, in words [1]: zero
6 | CCC(CCC(=O)c1ccc(Cl)c(Cl)c1)(c1ccccc1)N(C)C (stereo not drawn) [Example 9.g, 1-(3,4-dichlorophenyl)-4-N,N-dimethylamino-4-phenyl-hexan-1-one] | -25% | 3 | –
7 | C=CCN(C)C(CC)(CCC(=O)c1ccccc1)c1ccccc1 (stereo not drawn) [Example 10, N-allyl-1,4-diphenyl-4-N-methylamino-hexan-1-one] | -6% | 24.2 | –
8 | CCC(CCC1(c2ccccc2)SCCS1)(c1ccccc1)N(C)C (stereo not drawn) [Example 12, 2-(3-N,N-dimethylamino-3-phenyl-pentan-1-yl)-2-phenyl-1,3-dithiolane] | -12% | 23.1 | –
9 | CN(C)C(=O)C(CCN1CCC(O)(c2ccc(Cl)cc2)CC1)(c1ccccc1)c1ccccc1 [Loperamide, 4-(4-chlorophenyl)-4-hydroxy-N,N-dimethyl-α,α-diphenyl-1-piperidinebutanamide, reference compound] | – | – | TD50 [3]: 75 mg/kg; toxicity at the administration doses, in words [4]: too toxic; ED50 ([1]; Rattus norvegicus, po, read-out: ED50 slowing down transit by 50%): 1.79 mg/kg; ED50 ([2]; Rattus norvegicus, po, 3 h, read-out: ED 50 at 3 h., antidiarrheal activity): 0.2 mg/kg
10 | CN1CC[C@]23c4c5ccc(O)c4O[C@H]2[C@@H](O)C=C[C@H]3[C@H]1C5 [Morphine, reference compound] | – | – | ED50 slowing down transit by 50% ([1]; oral, dose at which activity is -50%): 10 mg/kg; ED 50 at 3 h., antidiarrheal activity ([2]; oral, one hour before 1.0 ml castor oil; inhibition of effect in 50% of animals at 3 h): 0.83 mg/kg
